A short description of data set [1]: Clearance in mouse liver microsomes at 0.1 uM preincubated for 10 mins followed by NADPH addition and measured up to 60 mins by LC-MS/MS analysis. In kind it is ADME, Microsome. Conditions: 1 h. (Liver microsomes are a subcellular fraction often used to study metabolism.)
The next data set concerns the target Cytochrome P450 2D6 (Homo sapiens, UniProt P10635). Nature of the data set: Inhibition of CYP2D6 in human liver microsomes using dextromethorphan as substrate preincubated for 10 mins followed by NADPH addition and measured after 15 mins by LC-MS/MS analysis. The class given is ADME.
The target in data set [2] is Bromodomain testis-specific protein (Homo sapiens, UniProt Q58F21). The data set can be described thus: Binding affinity to human partial length BRDT bromodomain 2 isoform b (K250 to E382 residues) expressed in bacterial expression system by bromoscan assay.
Data set [3] in a line: AUC (0 to t) in mouse at 3 mg/kg, po by LC-MS/MS analysis. In kind it is ADME, organism-based. The conditions noted are these: in vivo.
In data set [4] the target is Bromodomain-containing protein 4 (Homo sapiens, UniProt O60885). The data set can be described thus: Inhibition of BRD4 in human MV4-11 cells assessed as reduction in c-Myc expression measured after 6 to 24 hrs by Western blot analysis. In kind it is cell-based. On the technique in general: A western blot detects proteins with antibodies after separation by electrophoresis.

Data set [5] can be described thus: Cmax in mouse at 3 mg/kg, po by LC-MS/MS analysis. The class given is ADME, organism-based. The arrangement: dose 3 mg/kg, route oral. The conditions noted are these: in vivo.
Data set [6] is described as follows: Half life in Sprague-Dawley rat at 3 mg/kg, po by LC-MS/MS analysis. In kind it is ADME, organism-based. Conditions: in vivo; call rule not given here.
The test system of a further data set is MM1.S. The data set can be described thus: Antiproliferative activity against human MM1S cells assessed as reduction in cell viability measured after 72 hrs by Celltitre-glo luminescence assay. The class given is functional, cell-based.
Data set [7] is described as follows: Clearance in dog liver microsomes at 0.1 uM preincubated for 10 mins followed by NADPH addition and measured up to 60 mins by LC-MS/MS analysis. The class given is ADME, Canis lupus familiaris, Microsome. Conditions: 1 h.
Data set [8] can be described thus: Half life in Sprague-Dawley rat at 1 mg/kg, iv by LC-MS/MS analysis. The class given is ADME, organism-based. Conditions: in vivo.
Data set [9] deals with Voltage-gated inwardly rectifying potassium channel KCNH2 (Homo sapiens, UniProt Q12809). The data set can be described thus: Inhibition of human ERG at 40 uM by Qpatch automatic patch clamp method. On the technique in general: The patch-clamp technique gives a direct electrical read-out from membranes.
Chain of Voltage-gated inwardly rectifying potassium channel KCNH2 (Q12809 whole entry): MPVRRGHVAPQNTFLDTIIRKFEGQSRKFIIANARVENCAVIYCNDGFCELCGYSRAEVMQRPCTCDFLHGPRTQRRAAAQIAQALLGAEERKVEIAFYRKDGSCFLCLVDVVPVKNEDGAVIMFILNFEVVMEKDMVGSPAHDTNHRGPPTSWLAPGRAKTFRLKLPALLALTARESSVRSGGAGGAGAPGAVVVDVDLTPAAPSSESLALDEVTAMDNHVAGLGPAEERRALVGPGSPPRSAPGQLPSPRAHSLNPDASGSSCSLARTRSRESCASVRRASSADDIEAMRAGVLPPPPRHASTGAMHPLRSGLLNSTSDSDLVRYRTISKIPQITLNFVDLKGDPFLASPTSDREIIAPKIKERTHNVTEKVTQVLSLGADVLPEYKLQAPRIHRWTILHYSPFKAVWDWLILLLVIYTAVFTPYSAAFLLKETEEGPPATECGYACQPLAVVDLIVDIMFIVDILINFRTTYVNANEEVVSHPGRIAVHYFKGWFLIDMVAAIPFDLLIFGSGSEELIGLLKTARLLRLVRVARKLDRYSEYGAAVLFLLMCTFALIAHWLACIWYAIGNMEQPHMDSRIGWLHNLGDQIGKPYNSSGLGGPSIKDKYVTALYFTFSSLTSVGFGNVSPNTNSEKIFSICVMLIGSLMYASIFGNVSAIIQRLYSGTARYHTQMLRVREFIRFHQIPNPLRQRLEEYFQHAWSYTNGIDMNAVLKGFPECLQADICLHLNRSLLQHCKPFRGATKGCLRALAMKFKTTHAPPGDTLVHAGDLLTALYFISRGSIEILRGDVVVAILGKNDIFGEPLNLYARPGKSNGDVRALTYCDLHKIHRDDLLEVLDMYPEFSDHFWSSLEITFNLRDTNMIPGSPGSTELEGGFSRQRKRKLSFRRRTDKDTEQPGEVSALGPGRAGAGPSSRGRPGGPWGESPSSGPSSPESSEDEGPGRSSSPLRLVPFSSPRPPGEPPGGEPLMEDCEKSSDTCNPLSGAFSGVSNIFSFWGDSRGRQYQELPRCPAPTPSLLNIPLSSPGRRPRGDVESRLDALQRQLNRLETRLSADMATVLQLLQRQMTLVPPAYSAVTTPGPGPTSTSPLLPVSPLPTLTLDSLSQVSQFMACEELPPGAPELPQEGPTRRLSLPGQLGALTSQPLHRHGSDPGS
Data set [10] in a line: Clearance in Sprague-Dawley rat at 1 mg/kg, iv by LC-MS/MS analysis. The conditions noted are these: in vivo. In kind it is ADME, organism-based.
The nature of data set [11]: Clearance in rat liver microsomes at 0.1 uM preincubated for 10 mins followed by NADPH addition and measured up to 60 mins by LC-MS/MS analysis. The class given is ADME, Microsome. Conditions: 1 h.
Data set [12] can be described thus: Half life in mouse at 3 mg/kg, po by LC-MS/MS analysis. In kind it is ADME, organism-based. The conditions noted are these: in vivo.
Data set [13] can be described thus: Half life in rat liver microsomes at 0.1 uM preincubated for 10 mins followed by NADPH addition and measured up to 60 mins by LC-MS/MS analysis. In kind it is ADME, Microsome.
Another data set addresses Cytochrome P450 3A4 (Homo sapiens, UniProt P08684). The data set can be described thus: Inhibition of CYP3A4 in human liver microsomes using midazolam as substrate preincubated for 10 mins followed by NADPH addition and measured after 15 mins by LC-MS/MS analysis. The class given is ADME.
Data set [14] in a line: Half life in monkey liver microsomes at 0.1 uM preincubated for 10 mins followed by NADPH addition and measured up to 60 mins by LC-MS/MS analysis. The class given is ADME, Macaca mulatta, Microsome. The conditions noted are these: rhesus monkey.

Chain of Cytochrome P450 2D6 (P10635 whole entry, the tested form may be a part, canonical isoform): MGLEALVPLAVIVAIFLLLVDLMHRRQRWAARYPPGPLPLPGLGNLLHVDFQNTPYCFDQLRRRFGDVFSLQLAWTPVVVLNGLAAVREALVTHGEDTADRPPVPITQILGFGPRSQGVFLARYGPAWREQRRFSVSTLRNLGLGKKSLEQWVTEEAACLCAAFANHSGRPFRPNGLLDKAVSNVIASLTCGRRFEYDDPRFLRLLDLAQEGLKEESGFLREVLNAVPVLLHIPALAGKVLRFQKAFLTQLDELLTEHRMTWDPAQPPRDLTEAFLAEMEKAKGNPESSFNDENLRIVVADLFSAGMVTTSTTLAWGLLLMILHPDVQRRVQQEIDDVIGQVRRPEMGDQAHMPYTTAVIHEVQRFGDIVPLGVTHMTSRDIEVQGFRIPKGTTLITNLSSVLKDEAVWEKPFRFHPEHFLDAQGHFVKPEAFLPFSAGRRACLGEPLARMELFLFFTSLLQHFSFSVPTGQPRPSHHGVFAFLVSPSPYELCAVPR
Chain of Cytochrome P450 3A4 (P08684 whole entry): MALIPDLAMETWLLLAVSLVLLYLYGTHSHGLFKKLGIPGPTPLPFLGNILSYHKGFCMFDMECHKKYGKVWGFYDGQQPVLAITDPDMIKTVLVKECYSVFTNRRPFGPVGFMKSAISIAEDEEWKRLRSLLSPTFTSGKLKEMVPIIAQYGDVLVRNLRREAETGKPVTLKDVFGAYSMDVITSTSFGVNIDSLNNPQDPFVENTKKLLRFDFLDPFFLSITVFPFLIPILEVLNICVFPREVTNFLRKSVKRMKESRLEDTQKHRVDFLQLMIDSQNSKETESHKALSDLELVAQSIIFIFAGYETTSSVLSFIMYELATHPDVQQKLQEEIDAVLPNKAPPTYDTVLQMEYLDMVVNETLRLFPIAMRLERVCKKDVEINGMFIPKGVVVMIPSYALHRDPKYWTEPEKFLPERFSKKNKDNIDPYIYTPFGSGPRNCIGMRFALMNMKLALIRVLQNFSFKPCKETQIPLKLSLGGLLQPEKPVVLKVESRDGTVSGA

As a reminder, the IC50 is the concentration needed to halve the response being measured. As usually defined, the Kd is a measure of binding affinity in units of concentration. As a reminder, the AUC(0-t) is exposure summed from dosing to a finite time, without extrapolation to infinity. What is called Cmax is the highest concentration seen after dosing. Usually half-life stands for the time in which the quantity being followed falls by half. As a reminder, the clearance is the volume of plasma or blood freed of the substance per unit of time. On to `CCS(=O)(=O)Cc1cnc(Oc2ccc(F)cc2F)c(-c2cc(C)c3c(=O)[nH]ccn23)c1`, for which the Microsomal intrinsic clearance in data set [1] stood at 25.4 mL/min/g. Further, the IC50 at Cytochrome P450 2D6 is more than 20000 nM; in the data set with MM1.S it was 15.9 nM; against Cytochrome P450 3A4, more than 20000 nM. Besides, in data set [2], binding was characterised by a dissociation constant (Kd) of 2.1 nM. Moreover, the area under the curve AUC(0-t) in data set [3] amounted to 1710 ng·h/mL. Moreover, the inhibition entry in data set [4] was “Dose-dependent effect”. Further, in data set [5], the Cmax worked out at 399 ng/mL. In addition, the half-life in data set [6] is 3.6 h; in [8] it was 1.3 h; in data set [12], 1.3 h. This compound gave a CLH in data set [7] of 25.2 mL/min/g. The “inhibition (INH)” value in data set [9] was “Not Active”. The compound also yielded a clearance in data set [10] of 21.5 mL/min/kg. Also, the Intrinsic clearance in data set [11] was found to be 64.8 mL/min/g. The half-life at 0.1 µM came to 0.54 h in [13] and 0.817 h in [14].

(Values after ChEMBL document CHEMBL4402585 (J Med Chem, 2020).)
